Paper PMC8000185 (International Journal of Molecular Sciences, 2021)
Several values for one entry are separate records, joined by “and”; a condition that tells them apart may be missing. Equal values may be shown once. Read-outs that look alike come from different tables or passages of the source.

What was measured:
[1] = target: T1, NHE1 (Homo sapiens, UniProt P19634); test: Plate-based NHE1 inhibition assay (BCECF pHi recovery, 96-well plate reader); format: cell-based
T1 construct: endogenous in cells; host or cells: MDA-MB-231
T1 sequence (P19634 whole entry): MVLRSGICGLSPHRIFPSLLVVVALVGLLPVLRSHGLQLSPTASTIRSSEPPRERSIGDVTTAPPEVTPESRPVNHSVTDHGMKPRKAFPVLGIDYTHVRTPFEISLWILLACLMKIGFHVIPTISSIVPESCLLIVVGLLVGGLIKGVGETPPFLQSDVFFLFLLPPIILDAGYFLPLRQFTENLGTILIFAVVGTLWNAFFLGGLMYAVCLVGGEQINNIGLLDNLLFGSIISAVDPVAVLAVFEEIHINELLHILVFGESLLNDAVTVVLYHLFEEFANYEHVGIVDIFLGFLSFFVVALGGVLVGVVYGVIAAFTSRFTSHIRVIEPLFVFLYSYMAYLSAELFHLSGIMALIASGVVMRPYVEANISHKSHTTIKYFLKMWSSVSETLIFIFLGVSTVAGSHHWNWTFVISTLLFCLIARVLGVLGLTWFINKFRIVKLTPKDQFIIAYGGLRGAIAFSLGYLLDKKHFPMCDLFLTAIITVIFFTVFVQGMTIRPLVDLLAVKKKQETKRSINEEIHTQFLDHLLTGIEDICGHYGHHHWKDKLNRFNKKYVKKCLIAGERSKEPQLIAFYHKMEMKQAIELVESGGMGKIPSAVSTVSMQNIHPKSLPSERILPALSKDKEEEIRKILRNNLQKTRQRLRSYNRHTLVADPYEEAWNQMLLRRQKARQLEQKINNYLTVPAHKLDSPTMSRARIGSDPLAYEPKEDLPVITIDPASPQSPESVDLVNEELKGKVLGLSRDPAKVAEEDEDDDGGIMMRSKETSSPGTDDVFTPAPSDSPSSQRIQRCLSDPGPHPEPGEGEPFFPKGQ
Method: To perform NHE1 screening with increased throughput, we adapted the conventional cuvette-based NHE1 activity assay to a simple new 96-well plate format using MDA-MB-231 cells that were compatible with common laboratory fluorescence plate readers (see Section 4 for details).
Culture media were removed and replaced with 200 µL 0.2% FBS-containing media with incubation for 3–4 h to stimulate NHE1 activity, followed by incubation for 30 min in the presence of 5 µM 2′,7′-bis(carboxyethyl)-5(6)-carboxyfluorescein-acetoxymethyl ester (BCECF-AM, cat #ab143463, Abcam, Cambridge, United Kingdom). Cells were then washed with 100 µL/well Na^+-free acid-load buffer: 10 mM NH4Cl, 1.8 mM CaCl2, 90 mM N-methyl-D-glucamine (from 1 M stock titrated to pH 7.4 with HCl), 5 mM glucose, 15 mM HEPES, 5 mM KCl, 1 mM MgCl2 (pH 7.5, adjusted with KOH), and incubated at 37 °C for a further 30 min. Acid-load buffer was removed and replaced with Na^+-containing assay buffer: 100 mM NaCl, 1.8 mM CaCl2, 5 mM glucose, 15 mM HEPES, 5 mM KCl, 1 mM MgCl2 containing serial dilution of each compound or DMSO vehicle, and changes in fluorescence were read immediately using a BMG Labtech POLARstar OMEGA (BMG Labtech GmbH, Offenburg, Germany) plate reader according to the parameters in Table S1. Compounds were tested at n = 3 technical replicates per concentration per plate. BCECF-AM-free cells were treated with matched concentrations of each compound to correct for intrinsic fluorescence. DMSO was present in all wells at a final concentration of 1% v/v. Inhibition of NHE1-mediated pHi recovery was determined by ratiometric calculation of the change in blank-corrected pH-sensitive fluorescence divided by the isobestic fluorescence for each well over time. […] (0% activity) controls present on each plate. IC50 values were determined through fitting of Log-10 transformed data using the “log(inhibitor) versus normalised response–variable slope” non-linear function in GraphPad PRISM v8.0 software package (GraphPad Software, San Diego, CA, USA).

[2] = system: NHE1; settings: read-out: NHE1 IC50 (literature); cited from earlier work
[3] = Cell viability (cytotoxicity) assay; format: cell-based; settings: human, MDA-MB-231 cells, 48 h treatment
Method: On the day of treatment, respective compounds were serially diluted using a semi-logarithmic dilution series from 20 mM stocks in neat DMSO into DMEM-high glucose media (10% v/v FBS) in a separate 96-well plate and under sterile conditions. Thereafter, 10 μL of the diluted compounds at their respective concentrations (n = 4) were added to the cells. […] Vehicle media blanks or drug blanks were also included to correct for inherent colour of the compounds and phenol red-containing media. Following 48 h treatment, 20 μL CellTitre 96® Aqueous One Solution Cell Proliferation Assay (Promega, Madison, USA) was added to each well, plates were incubated for 2 h, and absorbance was measured at 490 nm using a SpectraMax Plus 384-well plate reader (Molecular Devices LLC, San Jose, USA) and Softmax PRO v7.0 software. Blank-corrected data were analysed and graphed using GraphPad PRISM v8.0 software (GraphPad Software, San Diego, CA USA).

[4] = target: T1, NHE1; test: Cuvette-based NHE1 inhibition assay; format: cell-based
Method: Performed as described in [53]. Briefly, MDA-MB-231 cells were grown to ~80–90% confluence on glass coverslips. Then, 3 µM BCECF were loaded into cells in 400 µL serum-free medium and the fluorescence was measured using a PTI Deltascan spectrofluorometer (Horiba Ltd., Kyoto, Japan). […] A calibration curve of pHi fluorescence was performed for every sample using nigericin [55]. […] IC50 values were determined through fitting of Log-10 transformed data using the “log(inhibitor) versus normalised response–variable slope” non-linear function in GraphPad PRISM v8.0 software package (GraphPad Software, San Diego, USA).

[5] = target: T2, urokinase from human kidney cells (human uPA) (Homo sapiens, UniProt P00749); test: uPA inhibition assay (fluorescence-based, purified enzyme); format: biochemical; settings: for uPA selectivity ratio: uPA over NHE1
T2 construct: low molecular weight active human uPA; purchased Sigma-Aldrich U4010; host or cells: human kidney cells

[6] = target: T3, MDA-MB-231 cell-surface uPA (HMW human active uPA bound to uPAR) (Homo sapiens, UniProt P00749); test: Cell-surface uPA activity assay; format: cell-based; settings: average ± SEM from four independent assays
T3 construct: pre-incubated with active high molecular weight (HMW) uPA; purchased Molecular Innovations HTC-UPA; host or cells: added to MDA-MB-231 cells (endogenous uPAR)
Method: Having identified non-cytotoxic compounds with the desired target selectivity profiles, we then sought to confirm their uPA inhibitory activities in a more physiologically relevant, whole-cell assay. To this end, the fluorogenic biochemical assay was modified to allow measurement of cell-surface uPA activity in MDA-MB-231 cells, which are known to express uPAR [38, 39]. To maximise enzymatic activity, the cells were pre-incubated with active high molecular weight (HMW) uPA to saturate unoccupied uPAR present at the cell surface.
MDA-MB-231 cells were seeded into Greiner CELLSTAR black 96-well plates (Greiner Bio-one, cat #655079) at density 10,000 cells/well in a volume of 100 µL media and cultured for 48 h. On the day of the experiment, cell culture media were removed via shakeout, followed by washing with 100 µL 1 × Dulbecco’s PBS/1 mM CaCl2/1 mM MgCl2/0.1% protease-free bovine serum albumin/pH 7.4 wash buffer. Cells were then incubated in the presence of 25 nM HMW human active uPA (Molecular Innovations, San Diego, CA, USA, SKU: HTC-UPA) in wash buffer for 30 min at RT. Unbound HMW uPA was removed via washing twice with 100 µL wash buffer. […] Plates were read immediately following the addition of substrate using a POLARstar OMEGA fluorescence plate reader (BMG Labtech GmbH, Offenburg, Germany) according to the parameters in Table S1.

[7] = previously showed; cited from earlier work
[8] = system: ENaC; settings: previously showed; cited from earlier work
[9] = system: orthotopic xenograft model of pancreatic ductal adenocaricinoma; settings: pancreatic ductal adenocarcinoma; cited from earlier work
[10] = 1 μM, MDA-MB-231 cells, plate reader
[11] = MDA-MB-231 cells, plate-reader assay, read-out: NHE1 Plate reader IC50
[12] = MDA-MB-231 cells, cuvette assay, read-out: NHE1 Cuvette IC50
[13] = plate-reader value as printed in nM in text, read-out: NHE1 IC50
[14] = purified enzyme, Z-Gly-Gly-Arg-AMC substrate, number in parentheses after value, read-out: uPA IC50

## N=C(N)NC(=O)c1nc(Cl)c(N)nc1N [AML, Amiloride, reference compound]
[1]; [10]
  inhibition at 1 µM: 7%
[1]; MDA-MB-231 cells, plate reader
  inhibition at 10 µM: 64%
[2]
  IC50: […]
[3]
  IC50 at 48 h: > 100000 nM

## CC(=O)N1CCC(c2ccc(C(=O)NC(=N)N)cc2C(F)(F)F)CC1 [BI-9627, reference compound]
[4]; Figure S1, n = 6 technical replicates/concentration, read-out: NHE1 IC50, cuvette assay
  IC50: 7.5 nM
[1]; Figure S1 representative curve, n = 3 technical replicates, read-out: NHE1 IC50 of curve shown, plate reader assay
  IC50: 1.4 nM
[1]; [11]
  IC50: 3 ± 0.8 nM
[5]; human uPA, fluorometric method, Figure S1, read-out: uPA IC50 (not reached at the highest concentration tested)
  IC50: > 50000 nM
[2]
  IC50: 6 nM

## N=C(N)NC(=O)c1nc(-c2cncnc2)c(N2CCCCCC2)nc1N [compound 24]
[4]; [12]
  IC50: 397 nM
[6]
  IC50: 130 ± 10 nM
[7]
  K+-sparing or diuretic effects in vivo: no K^+-sparing or diuretic effects
[1]; [10]
  inhibition at 1 µM: 80%
[1]; MDA-MB-231 cells, plate reader
  inhibition at 10 µM: 96%
[1]; [13]
  IC50: 266 nM and < 300 nM
[8]
  ENaC activity in vitro: no ENaC activity
[5]; [14]
  IC50: 175 nM and < 300 nM
[5]
  uPA selectivity ratio: 1.5
[3]
  IC50 at 48 h: > 100000 nM

## COc1ncc(-c2nc(C(=O)NC(=N)N)c(N)nc2N2CCCCCC2)cn1 [compound 26]
[4]; [12]
  IC50: 21500 nM
[6]
  IC50: 149 ± 14 nM
[7]
  K+-sparing or diuretic effects in vivo: no K^+-sparing or diuretic effects
[1]; [10]
  NHE1 Inhibition (%) 1 μM: no activity
  inhibition at 1 µM: 0%
[1]; MDA-MB-231 cells, plate reader
  inhibition at 10 µM: 72%
[1]; IC50 measurements
  drop in NHE1 potency relative to unsubstituted 24: ~ 46 fold
[1]; [13]
  IC50: 12300 nM
[8]
  ENaC activity in vitro: no ENaC activity
[9]
  anti-metastatic properties: anti-metastatic properties
[5]; [14]
  IC50: 86 nM
[5]
  uPA selectivity ratio: 143
[3]
  IC50 at 48 h: > 100000 nM

## N=C(N)NC(=O)c1nc(Cl)c(N2CCOCC2)nc1N [compound 29]
[4]; [12]
  IC50: 166 nM
[1]; [10]
  inhibition at 1 µM: 85%
[1]; MDA-MB-231 cells, plate reader
  inhibition at 10 µM: 100%
[1]
  NHE1 selectivity ratio (selectivity over uPA): 85 fold
[1]; [13]
  IC50: 129 nM
[5]; [14]
  IC50: 10900 nM
[3]
  IC50 at 48 h: > 100000 nM

## N=C(N)NC(=O)c1nc(Cl)c(N2CCCOCC2)nc1N [compound 30]
[4]; [12]
  IC50: 93 nM
[1]; [10]
  inhibition at 1 µM: 91%
[1]; MDA-MB-231 cells, plate reader
  inhibition at 10 µM: 100%
[1]
  NHE1 selectivity ratio (selectivity over uPA): 67 fold
[1]; [13]
  IC50: 85 nM
[5]; [14]
  IC50: 5720 nM
[3]
  IC50 at 48 h: 95600 nM

## N=C(N)NC(=O)c1nc(-c2ccc(C(F)(F)F)cc2)c(N2CCCC2)nc1N [compound 39]
[4]; [12]
  IC50: 441 nM
[1]; [10]
  inhibition at 1 µM: 95%
[1]; MDA-MB-231 cells, plate reader
  inhibition at 10 µM: 100%
[1]; [11]
  IC50: 605 ± 134 nM
[5]; [14]
  IC50: 6190 nM
[3]
  IC50 at 48 h: 23900 nM
